Test results taken from patent US12662473B2, “Inhibitors for programmed cell necrosis and preparation method therefor and use thereof” (SHANGHAI INSTITUTE OF ORGANIC CHEMISTRY, CHINESE ACADEMY OF …, priority 2019, dated 2026).

Experiments:
RIPK1(1-330) protein = molecular target: T1, RIPK1(1-330) protein (Homo sapiens, UniProt Q13546); assay: ADP-Glo kinase activity assay at different ATP concentrations; format: biochemical; parameters: RIPK1(1-330) protein with a final concentration of 2 μL and ATP; made in house; conditions: FIG. 4
T1 sequence (Q13546 1-330): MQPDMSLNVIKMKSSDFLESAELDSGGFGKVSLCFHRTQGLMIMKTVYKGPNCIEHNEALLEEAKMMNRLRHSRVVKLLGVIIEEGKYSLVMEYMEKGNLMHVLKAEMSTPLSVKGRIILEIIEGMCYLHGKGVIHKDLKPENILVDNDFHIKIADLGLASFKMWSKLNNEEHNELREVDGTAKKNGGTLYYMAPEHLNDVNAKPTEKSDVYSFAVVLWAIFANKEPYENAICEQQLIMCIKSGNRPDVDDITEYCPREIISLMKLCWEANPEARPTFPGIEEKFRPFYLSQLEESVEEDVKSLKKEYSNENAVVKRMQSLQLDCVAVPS
Experimental: The adopted biological test protocol was: The effect of compound QY-1-98 on the kinase activity of RIPK1(1-330) protein was tested. The purified RIPK1(1-330) protein in vitro retained the complete kinase activity domain and maintained good kinase activity. Through the IC50 of the compounds of the present invention inhibiting RIPK1 kinase activity in the environment with different concentrations of ATP, the binding mode of the compounds to RIPK1 is obtained. Nec-1s, a known ATP-noncompetitive inhibitor of RIPK1, was used as a control.
RIPK1(1-330) protein with a final concentration of […] and ATP (1× kinase buffer) with a corresponding concentration were added to the 384-well plate, with a […]. At least 3 duplicate wells were set in each group. The reaction was carried out at 37° C. for 2H. 5 μL of ADP-Glo reagent was added, which is used to stop the kinase reaction and remove residual ATP from the reaction system. The reaction solution was placed at room temperature for 40 min 10 μL of kinase detection reagent was added, which is used to convert ADP to ATP and luciferase and luciferin were introduced to detect ATP in the system. The reaction was carried out at room temperature for 1H. Luminescence was detected using the 7500 Fast Real-Time PCR System. The IC50 of the compounds inhibiting the kinase reaction was calculated using Prism Graphpad statistical software.

[1] = tested on: RIPK1 phosphorylation and MLKL oligomerization in FADD deficient Jurkat cells; assay: Western blot of key proteins in TNFα-induced FADD deficient Jurkat cell programmed necrosis pathway; format: cell-based, human; conditions: TNFα-stimulated FADD deficient Jurkat cells, FIG. 2
Description: In order to verify whether the compounds of the present invention can inhibit programmed cell death by inhibiting the activity of RIPK1, and to detect the activation of downstream proteins of programmed necrosis pathway, TNFα was used to stimulate FADD deficient Jurkat to produce programmed necrosis, and the compounds of the present invention were used to treat the cells at the same time. Cells were harvested after a period of time to detect phosphorylation of RIPK1 and oligomerization of MLKL using western blot.
FADD deficient Jurkat cells (human peripheral blood leukemia T cell line) were cultured in vitro. […] The BCA protein quantification kit was used to detect the protein content of each group, and PIPA lysis buffer was used to adjust the protein amount to make the final volume of 100 μL. […]
25 μL of 5* protein loading buffer was added to 100 μL of cell lysate, and the mixture was heated at 95° C. for 10 min After the samples were cooled, electrophoresis was carried out using SDS-PAGE (9%) gel at 60V, and then switched to 120V after 30 min until the leading band was electrophoresed to the bottom of the gel. […] The resulting sample was incubated with ECL luminescent solution and detected the luminescent signal.

change of IC50 with the increase of ATP concentration (RIPK1(1-330) protein; different ATP concentrations): does not change significantly
Compound: Cc1noc([C@@H]2CCCN2C(=O)C(C)(C)Oc2ccc(Cl)cc2)n1 [QY-1-98]
activity of RIPK1 (1-330) protein kinase in vitro (RIPK1(1-330) protein; ADP-Glo): can inhibit the activity of RIPK1 (1-330) protein kinase in vitro | oligomerization of MLKL [1]: can inhibit | phosphorylation of RIPK1 [1]: can inhibit the phosphorylation of RIPK1
